Patent publication US5780008A, “Polyhdric phenol compounds” (Mallinckrodt Medical, Inc., priority 1997, dated 1998)
Each block holds one compound with its values, some of them ahead of it.

Legend:
erythrocytes = experiment: binding of 3-125I-phloretin to erythrocytes; set-up: species or system human
Protocol: (§1) In order to be able to compare the binding to cancer cells with the binding to normal cells, the following experiments are carried out. Binding to certain cancer cells, viz. YAK1 mice lymphoma cells (10^6 cells/ml incubation medium) is compared with binding to erythrocytes of a young healthy person (10^6 cells/ml incubation medium), because erythocytes are typical reference cells for glucose transport studies.
(§2) The incubation media are respectively:
(§3) RPMI buffer pH=8; 11 mM in glucose, and
(§4) RPMI buffer/0.9% NaCl : 1/1.
(§5) Each 1 ml essay contains 5% of foetal calf serum and is spiked (50 μl) with 3-^125 I-phloretin (initial activity is measured). After 15 min incubation at 37° C., the suspension is centrifuged and the precipitate is resuspended with 1 ml cold buffer which is discarded after a second centrifugation. The final radioactive precipitate is suspended in 1 ml water and measured. The bound radioactivity is related to the initial activity.
Saturation binding of 3-^125 I-phloretin to 5.10^6 erythrocytes is performed in RPMI-buffer and Tris-buffer of pH 8. The binding experiments are performed at pH 8, because this is the pH of the RPMI buffer needed for optimum YAK1 cells growth. Incubation for 15 min at 37° C. Inhibition is studied by pre-incubation (15 min, 37° C.) of the erythrocytes in buffer containing 2.10^-4 M 3-Br-phloretin. After centrifugation, the Br-phloretin--containing solution is discarded and the precipitate washed with ice-cooled buffer. After a second centrifugation, the supernatant is discarded and the cells are resuspended in buffer containing 3-^125 I-phloretin. After incubation for 15 min at 37° C., the same above procedure is applied.
Phloretin is a weak acid (pK is approx. 7.3); only the uncharged (non-dissociated) form inhibits red cell glucose transport (Jennings et al., see above). Therefore the values mentioned hereinafter are corrected for dissociation.

YAK1 mice lymphoma cells = experiment: binding of 3-125I-phloretin to YAK1 lymphoma cancer cells
Protocol: as §1, §2, §3, §4, §5

hexokinase = experiment: hexokinase-model: inhibition of hexokinase catalysed 6-phosphorilation of glucose; format: biochemical
From the text: The "hexokinase-model" is used as a model system for the glucose-transport proteins, which play a paramount role in the glucose metabolism.

[1] = binding in human whole blood (RB/plasma distribution, reversibility); format: in vitro ADME
Protocol: Jennings et al. [J. Gen. Phys., […], 67, 381]have reported the binding of phloretin to whole red blood cells. Their results let to assume that phloretin should enter the erythrocytes and bind to haemoglobine. This should mean that a phloretin-based radiotracer should not be suitable for in vivo use. Therefore the reversibility of the binding is checked. For this purpose 3-^125 I-phloretin is added to whole heparinised blood. This is centrifuged, yielding serum S-*I and red blood portion RB-*I. S-*I and non-radioactive RB (1/1) and respectively non-radioactive S and RB-*I (1/1) are incubated at 37° C. for 15 min and centrifuged. The radioactivity of all the weighed aliquots is measured in a well NaI(Tl) detector.

[2] = in vivo distribution studies in rats
Protocol: The in vivo distribution in rats is determined by injecting approx. 10μCi of the compound to be evaluated into the tail vein of the test animals. The test animals are sacrificed at appropriate time intervals after injection and the radioactivity of the organs of interest is measured by gamma scintillation counting.

bound/free value of 3-125I-phloretin after pre-incubation with inhibitor (erythrocytes; pre-incubation with 2×10^-4 M, 15 min 37° C., blank 0.193, average of 5 experiments): 0.081 | inhibition of 3-125I-phloretin binding to erythrocytes (erythrocytes; pre-incubation with 2×10^-4 M, compared with blank): 58%
Structure (SMILES): O=C(CCc1ccc(O)c(Br)c1)c1c(O)cc(O)cc1O [3-Br-phloretin, 3-bromophloretin]
decreased binding of 3-125I-phloretin to YAK1 cells (YAK1 mice lymphoma cells; co-incubation of 3-Br-phloretin, 15 min): 30%

inhibition potency for hexokinase relative to the original phloretin (hexokinase; versus phloretin): approx. 2 times
Structure (SMILES): O=C(CCc1ccc(O)c(I)c1)c1c(O)cc(O)cc1O [3-I-phloretin]

nature of binding to plasma-proteins and RB [1]: bound reversibly | high affinity binding in the presence of serum albumine (erythrocytes; at equilibrium): remains unchanged | influence of glucose on binding (erythrocytes; presence of 3.10^-3 -5.10^-3 M glucose): hardly influences | Bmax (erythrocytes; saturation binding 0.1 to 1.2 10^-10 M, Scatchard plot, pH 8): 4.7×10^-15 mol/10^6 erythrocytes | uptake in the heart and muscle in the presence of Br-phloretin (C.A.) ([2]; C.A. versus N.C.A.): decreased uptake | uptake in the lungs (lung versus blood) ([2]; approx. 10μCi into the tail vein): high uptake
Structure (SMILES): O=C(CCc1ccc(O)c([125I])c1)c1c(O)cc(O)cc1O [3-^125 I-phloretin]
increase of uptake to YAK1 lymphoma cancer cells as compared to erythrocytes (YAK1 mice lymphoma cells; YAK1 cells versus erythrocytes): > 2 factor

type of inhibition of hexokinase activity (hexokinase; from Lineweaver-Burck plots, with respect to glucose): competitive
Structure (SMILES): O=C(CCc1ccc(O)cc1)c1c(O)cc(O)cc1O [phloretin, reference compound]
